Laboratory results reported in patent US20140341922A1, “Method for Overcoming Tolerance to Targeted Anti-Cancer Agent” (SUN R&DB Foundation, priority 2011, published 2014).

Experiments:
[1] = system: recombinant soluble integrin β3 (rβ3) binding to IGF-1; assay: ELISA-type integrin binding assay on IGF-1-coated plates; conditions: 2 h
Experimental: IGF-1 (1 or 2 μg) was coated onto wells in 96-well microtiter plates and incubated with recombinant integrin β3 (0.5 μg/ml) and/or IGF-1R (0.1 or 0.5 μg/ml) protein diluted in 1 mM MnCl2-added HEPES-Tyrode buffer at room temperature for 2 h in the presence or absence of cixutumumab (10 μg/ml). Binding of integrin β3 and/or IGF-1R was detected by enzyme immunoassay using anti-His or anti-IGF-1R mAbs and avidin-labeled alkaline phosphatase-conjugated anti-mouse or anti-rabbit IgGs.
Secondly, the present inventors performed Enzyme-Linked ImmunoSorbent Assay-type integrin binding assay. Specifically, 96-well microtiter plates coated with IGF-1 were recombinant soluble IGF-1R (rIGF-1R; 5 μg/ml) or recombinant soluble integrin β3 (rβ3; 5 μg/ml), alone or in combination, in the presence or absence of cixutumumab (25 μg/ml) for 2 h. Bound IGF-1R (left) and integrin β3 (middle, right) were identified using anti-IGF1R and anti-His mAbs, respectively. The data are shown as the mean±SD of triplicate experiments (*P<0.05; **P=0.01; ***P<0.001).

HNSCC and NSCLC cells = assay: Soft agar colony formation assay; type: cell-based, human
Experimental: To evaluate the effect on anchorage-independent colony formation, cells were suspended in 0.4% agar in media at a density of 2×10^3 cells per well, replated in 12-well plates that have been pre-coated with 0.8% agar, and cultured in growth medium containing cixutumumab (25 μg/ml) for 2-6 weeks. Cells were stained with 0.1% Coomassie brilliant blue in PBS, and the colonies >0.2 mm in diameter were counted. Independent experiments were repeated three times.
Because cells grown in the 3D environment might differ from cells growing in PCPs and UAPs, the present inventor evaluated the effects of cixutumumab on cell growth in soft agar, a 3D culture system. 10 HNSCC and 6 NSCLC cells were cultured in soft agar for 4 to 6 weeks in the presence or absence of cixutumumab (25 μg/ml).

LN686 tumor xenografts = assay: LN686 xenograft, cixutumumab and Ad-CSK; type: in vivo, mouse; conditions: after 21 days
Experimental: LN686, UMSCC38, H226B, or A549m cells (1×10^6 cells/mouse in 100 μl of PBS) were subcutaneously injected into nude mice at a single dorsal flank site (6-9 mice per group). For HNSCC patient-derived tumor xenografts, primary human tumor specimens were collected from an untreated patient who underwent lobectomies of squamous carcinoma of the oral cavity. The tumors were cut into small pieces with a size of 2-mm^3 and subcutaneously implanted into the nude mice (one piece per mouse). At 0 day (the time point when tumor size reached to 80 to 100 mm^3) mice were treated with cixutumumab (10 mg/kg, i.p., once or twice a week), Ad-EV (3×10^11 pfu, intratumoral injection, once a week), Ad-CSK (3×10^11 pfu, intratumoral injection, once a week), siCon, siintegrin β3 ([…], i.p., once a week), dasatinib (20 mg/kg, oral gavage, daily), cixutumumab and Ad-CSK, or cixutumumab and dasatinib.
To further determine the effects of inhibiting integrin β3/Src signaling on antitumor activities of cixutumumab, an adenovirus expressing c-Src tyrosine kinase that phosphorylates the autoinhibitory tyrosine 527 was used (Yeatman, 2004). […]

Substance: cixutumumab: humanized mAb targeting IGF-1R, provided by ImClone Systems
- ablation of IGF-1-rβ3 interaction by rIGF-1R [1]: markedly blocked
- colony formation in soft agar (HNSCC and NSCLC cells; OSC19 and A549 cells, 3D system): concentration-dependent inhibitory effects
- colonies formed in soft agar (HNSCC and NSCLC cells; sensitive NSCLC and HNSCC lines vs resistant and mildly sensitive lines, 25 μg/ml, 4 to 6 weeks): significantly fewer colonies
- mean tumor weight compared to a control group (LN686 tumor xenografts): 96%
